According to patent US11472788B2, “Benzoimidazoles as selective inhibitors of indoleamine 2,3-dioxygenases” (BEIGENE, LTD., priority 2017, dated 2022):

Molecular target: cellular IDO1 in HeLa cells (Homo sapiens (Human), UniProt P14902)
Assay: HeLa Cell-Based IDO1 Kyn (Kynurenine) Production Assay
Details: IFN-γ induced IDO1, 48 hours incubation, Kyn absorbance at 480 nm
Protocol: HeLa Cell-Based IDO1 Kyn (Kynurenine) Production Assay:
The inhibitory activity of IDO1 inhibitors is determined by using a colorimetric reaction to measure Kyn generated from L-Trp (L-Tryptophon) oxidation by cellular IDO1 in HeLa cells after induction of IDO1 expression by IFN-γ.
Hela cells were obtained from the American Type Culture Collection and recovered in 10% FBS-containing phenol red-free DMEM medium. Cells were plated onto a 96-well plate (100 μl/well) at 8000 cells per well and kept at 37° C. in a humidified incubator supplied with 5% CO2. 4 hours later, Human recombinant IFN-γ (8901SC, CST) was added to cells (final concentration 100 ng/mL) to stimulate endogenous IDOL. Compounds at different concentrations diluted in dimethylsulfoxide (DMSO) were added simultaneously with IFN-γ and 0.4 mM L-Trp. Cells were kept at 37° C. in a humidified incubator supplied with 5% CO2. After 48 hours of incubation, 100 μl supernatant from each well was removed to a new plate. The protein in the medium was precipitated with the addition of 8 μl 6N trichloroacetic acid. The plate was incubated at 60° C. for 30 minutes and then centrifugation at 2500 rpm for 10 minutes to remove sediments. 80 μl supernatants were carefully removed to a new clean plate and added with an equal volume of 2% 4-(Dimethylamino)benzaldehyde (D2004, sigma) dissolved in glacial acetic acid. The absorbance at 480 nm wavelength derived from Kyn was measured using a PHERAstar FS plate reader (BMG LABTECH). The IC5C for each compound was derived from fitting the dose-response data to the four-parameter logistic model by using XLfit software (IDBS).

cellular IDO1 in HeLa cells, sequence (P14902 whole entry): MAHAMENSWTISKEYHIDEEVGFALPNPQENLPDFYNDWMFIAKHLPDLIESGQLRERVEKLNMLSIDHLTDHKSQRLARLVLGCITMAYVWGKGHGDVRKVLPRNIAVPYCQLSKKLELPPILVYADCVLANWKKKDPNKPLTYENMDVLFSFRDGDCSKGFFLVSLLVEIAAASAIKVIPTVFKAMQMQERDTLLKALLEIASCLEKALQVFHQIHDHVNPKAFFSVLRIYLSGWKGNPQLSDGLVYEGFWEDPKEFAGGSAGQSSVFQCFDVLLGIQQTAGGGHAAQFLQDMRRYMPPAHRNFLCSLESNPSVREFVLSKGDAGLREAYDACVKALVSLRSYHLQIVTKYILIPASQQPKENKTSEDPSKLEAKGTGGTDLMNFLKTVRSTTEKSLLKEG

Structure (SMILES) | EC50 [nM]
Fc1ccc2nccc(C3CCC(c4nc5cc(Cl)c(F)cc5[nH]4)CC3)c2c1 (single isomer, unassigned) [Example C1a, 4-(4-(5-chloro-6-fluoro-1H-benzo[d]imidazol-2-yl)cyclohexyl)-6-fluoroquinoline] | > 10000
Fc1ccc2nccc(C3CCC(c4nc5cc(Cl)c(F)cc5[nH]4)CC3)c2c1 (single isomer, unassigned) [Example C1b, 4-(4-(5-chloro-6-fluoro-1H-benzo[d]imidazol-2-yl)cyclohexyl)-6-fluoroquinoline] | 24
Cc1noc(-c2ccc3nc([C@@H](C)[C@H]4CC[C@@H](c5ccnc6ccc(F)cc65)CC4)[nH]c3c2)n1 [B149] | 0.96
CC(c1nc2c(ccc3ncccc32)[nH]1)[C@H]1CC[C@@H](c2ccnc3ccc(F)cc32)CC1 (stereo partly shown) [B150] | 10.9
C[C@H](c1nc2cc(F)c(-c3cccnc3)cc2[nH]1)[C@H]1CC[C@@H](c2ccnc3ccc(F)cc32)CC1 [B152] | 62.9
C[C@@H](c1nc2cc(-c3ccccc3)c(F)cc2[nH]1)[C@H]1CC[C@@H](c2ccnc3ccc(F)cc32)CC1 [B156] | 3.1
C[C@@H](c1nc2cc(C(=O)NC3CC3)c(F)cc2[nH]1)[C@H]1CC[C@@H](c2ccnc3ccc(F)cc32)CC1 [B158] | 6.9
CCOC(=O)c1ccc2[nH]c(C(C)[C@H]3CC[C@@H](c4ccnc5ccc(F)cc54)CC3)nc2c1 (stereo partly shown) [B161] | 1.6
CC(C)OC(=O)c1ccc2nc(C(C)[C@H]3CC[C@@H](c4ccnc5ccc(F)cc54)CC3)[nH]c2c1 (stereo partly shown) [B168] | 4.86
CC(c1nc2c(ccc3ccccc32)[nH]1)[C@H]1CC[C@@H](c2ccnc3ccc(F)cc32)CC1 (stereo partly shown) [B175] | 1.7
CC(C)OC(=O)c1ccc2nc([C@H](C)[C@H]3CC[C@@H](c4ccnc5ccc(F)cc54)CC3)[nH]c2c1 [B176] | 2.9
COC(=O)c1cc(C)c2[nH]c(C(C)C3CCC(c4ccnc5ccc(F)cc45)CC3)nc2c1 (stereo not shown) [B177] | 6.9
CC(c1nc2cc(-c3ccccc3)c(F)cc2[nH]1)C1CCC(c2ccnc3ccc(F)cc23)CC1 (stereo not shown) [B181] | 2.7
Cc1cc(C(=O)NC2CCC2)cc2nc([C@H](C)[C@H]3CC[C@@H](c4ccnc5ccc(F)cc54)CC3)[nH]c12 [B187] | 17.1
Cc1cc(C(=O)NC2CCC2)cc2nc([C@@H](C)[C@H]3CC[C@@H](c4ccnc5ccc(F)cc54)CC3)[nH]c12 [B188] | 788
COC(=O)c1ccc2nc(C(C)[C@H]3CC[C@@H](c4ccnc5ccc(F)cc54)CC3)[nH]c2c1F (stereo partly shown) [B191] | 1.14
CC(c1nc2cc(C(=O)NC3CC3)c(F)c(F)c2[nH]1)[C@H]1CC[C@@H](c2ccnc3ccc(F)cc32)CC1 (stereo partly shown) [B192] | 8.97
COC(=O)c1cccc2nc([C@@H](C)[C@H]3CC[C@@H](c4ccnc5ccc(F)cc54)CC3)[nH]c12 [B208] | > 1000
COC(=O)c1cc2nc(C(C)[C@H]3CC[C@@H](c4ccnc5ccc(F)cc54)CC3)[nH]c2c(F)c1F (stereo partly shown) [B213] | 1.8
CC(c1nc2ccc(C(=O)NC3COC3)cc2[nH]1)[C@H]1CC[C@@H](c2ccnc3ccc(F)cc32)CC1 (stereo partly shown) [B214] | 84
C[C@@H](c1nc2cc(-c3ccccc3)c(F)cc2[nH]1)[C@H]1CC[C@@H](c2ccnc3ccc(F)cc32)CC1 [B218] | 1.8
C[C@H](c1nc2cc(-c3ccccc3)c(F)cc2[nH]1)[C@H]1CC[C@@H](c2ccnc3ccc(F)cc32)CC1 [B219] | 13.7

Structure (SMILES) | EC50 [nM]
Fc1ccc2nccc([C@H]3CC[C@H](Cc4nc5cc(C(F)(F)F)ccc5[nH]4)CC3)c2c1 [Example A3a, 6-fluoro-4-((1s,4s)-4-((5-(trifluoromethyl)-1H-benzo[d]imidazol-2-yl)methyl)cyclohexyl)quinoline] | 72
Fc1ccc2nccc([C@H]3CC[C@@H](Cc4nc5cc(C(F)(F)F)ccc5[nH]4)CC3)c2c1 [Example A3b, 6-fluoro-4-((1r,4r)-4-((5-(trifluoromethyl)-1H-benzo[d]imidazol-2-yl)methyl)cyclohexyl)quinoline] | 6.8
CC(C)c1ccc2[nH]c(C[C@H]3CC[C@H](c4ccnc5ccc(F)cc54)CC3)nc2c1 [Example A5a, 6-fluoro-4-((1r,4r)-4-((5-isopropyl-1H-benzo[d]imidazol-2-yl)methyl)cyclohexyl)quinoline] | 184
CC(C)c1ccc2[nH]c(C[C@H]3CC[C@@H](c4ccnc5ccc(F)cc54)CC3)nc2c1 [Example A5b, 6-fluoro-4-((1s,4s)-4-((5-isopropyl-1H-benzo[d]imidazol-2-yl)methyl)cyclohexyl)quinoline] | 23
Fc1ccc2nccc([C@H]3CC[C@H](Cc4nc5cc6c(cc5[nH]4)OCO6)CC3)c2c1 [Example A7a, 6-(((1r,4r)-4-(6-fluoroquinolin-4-yl)cyclohexyl)methyl)-5H-[1,3]dioxolo[4′,5′:4,5]benzo[1,2-d]imidazole] | 87
Fc1ccc2nccc([C@H]3CC[C@@H](Cc4nc5cc6c(cc5[nH]4)OCO6)CC3)c2c1 [Example A7b, 6-(((1s,4s)-4-(6-fluoroquinolin-4-yl)cyclohexyl)methyl)-5H-[1,3]dioxolo[4′,5′:4,5]benzo[1,2-d]imidazole] | 3.6
Fc1ccc2nccc([C@H]3CC[C@H](Cc4nc5cc(OC6CC6)ccc5[nH]4)CC3)c2c1 [Example A8a, 4-((1r,4r)-4-((5-cyclopropoxy-1H-benzo[d]imidazol-2-yl)methyl)cyclohexyl)-6-fluoroquinoline] | 528
Fc1ccc2nccc([C@H]3CC[C@@H](Cc4nc5cc(OC6CC6)ccc5[nH]4)CC3)c2c1 [Example A8b, 4-((1s,4s)-4-((5-cyclopropoxy-1H-benzo[d]imidazol-2-yl)methyl)cyclohexyl)-6-fluoroquinoline] | 50
Cc1c(Br)ccc2[nH]c(C[C@H]3CC[C@H](c4ccnc5ccc(F)cc54)CC3)nc12 [Example A11a, 4-((1r,4r)-4-((5-bromo-4-methyl-1H-benzo[d]imidazol-2-yl)methyl)cyclohexyl)-6-fluoroquinoline] | 135
Cc1c(Br)ccc2[nH]c(C[C@H]3CC[C@@H](c4ccnc5ccc(F)cc54)CC3)nc12 [Example A11b, 4-((1s,4s)-4-((5-bromo-4-methyl-1H-benzo[d]imidazol-2-yl)methyl)cyclohexyl)-6-fluoroquinoline] | 14
Fc1ccc2nccc(C3CCC(Cc4nc5cc(CN6CCCCC6)ccc5[nH]4)CC3)c2c1 (stereo not shown) [Example A15, 6-fluoro-4-(4-((5-(piperidin-1-ylmethyl)-1H-benzo[d]imidazol-2-yl)methyl)cyclohexyl)quinoline] | 1950
Fc1ccc2nccc(C3CCC(Cc4nc5cc(N6CCCCC6)c(Br)cc5[nH]4)CC3)c2c1 (stereo not shown) [Example A16, 4-(4-((6-bromo-5-(piperidin-1-yl)-1H-benzo[d]imidazol-2-yl)methyl)cyclohexyl)-6-fluoroquinoline] | 251
COc1cc2nc(CC3CCC(c4ccnc5ccc(F)cc45)CC3)[nH]c2cc1Br (stereo not shown) [Example A17, 4-(4-((6-bromo-5-methoxy-1H-benzo[d]imidazol-2-yl)methyl)cyclohexyl)-6-fluoroquinoline] | 5
Fc1ccc(C2CCC(Cc3nc4cc(Cl)ccc4[nH]3)CC2)c2ncccc12 (stereo not shown) [Example A24, 8-(4-((5-chloro-1H-benzo[d]imidazol-2-yl)methyl)cyclohexyl)-5-fluoroquinoline] | 158
Fc1ccc(C2CCC(Cc3nc4cc(C5CC5)ccc4[nH]3)CC2)c2cccnc12 (stereo not shown) [Example A25, 5-(4-((5-cyclopropyl-1H-benzo[d]imidazol-2-yl)methyl)cyclohexyl)-8-fluoroquinoline] | 268
Fc1cc2nc(C[C@H]3CC[C@H](c4ccc(F)c5ncccc54)CC3)[nH]c2cc1F [Example A26a, 5-((1r,4r)-4-((5,6-difluoro-1H-benzo[d]imidazol-2-yl)methyl)cyclohexyl)-8-fluoroquinoline] | 466
Fc1cc2nc(C[C@H]3CC[C@@H](c4ccc(F)c5ncccc54)CC3)[nH]c2cc1F [Example A26b, 5-((1s,4s)-4-((5,6-difluoro-1H-benzo[d]imidazol-2-yl)methyl)cyclohexyl)-8-fluoroquinoline] | 205
Clc1ccc2[nH]c(CC3CCC(c4ccncc4)CC3)nc2c1 (stereo not shown) [Example A28, 5-chloro-2-((4-(pyridin-4-yl)cyclohexyl)methyl)-1H-benzo[d]imidazole] | 1810
FC(F)(F)c1cc(C2CCC(Cc3nc4cc(Cl)ccc4[nH]3)CC2)ccn1 (stereo not shown) [Example A29, 5-chloro-2-((4-(2-(trifluoromethyl)pyridin-4-yl)cyclohexyl)methyl)-1H-benzo[d]imidazole] | 179
c1ccc(C2CCC(Cc3nc4cc(C5CC5)ccc4[nH]3)CC2)cc1 (stereo not shown) [Example A31, 5-cyclopropyl-2-((4-phenylcyclohexyl)methyl)-1H-benzo[d]imidazole] | 115
Clc1ccc2[nH]c(C3C4CCC(c5ccccc5)CC43)nc2c1 (stereo not shown) [Example A36, 5-chloro-2-(3-phenylbicyclo[4.1.0]heptan-7-yl)-1H-benzo[d]imidazole] | 1670
